The results in this text go back to PubChem BioAssay AID248 (DTP/NCI, 2004).

The test system of the test is L1210 leukemia ip in BDF1 mice, survival T/C. Nature of the test: NCI In Vivo Anticancer Drug Screen. Data for tumor model L1210 Leukemia (intraperitoneal) in B6D2F1 (BDF1) mice. Particulars: endpoint: mean survival time, higher = longer survival. The gist of the method:
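Transplanted-tumor mice were given test agent; controls received vehicle only. Survival readings from the two groups were divided (treated over control).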

The mark [1] stands for this setting: dose: 100.0 mg/kg/injection, schedule: Q01DX009 (ip), vehicle: saline with Tween-80.
[2] abbreviates: dose: 200.0 mg/kg/injection, schedule: Q01DX009 (ip), vehicle: saline with Tween-80.
[3] abbreviates: dose: 400.0 mg/kg/injection, schedule: Q01DX009 (ip), vehicle: saline with Tween-80.
[4] abbreviates: dose: 100.0 mg/kg/injection, schedule: Q01DX001 (ip), vehicle: carboxymethylcellulose (CMC).
Setting [5] is: dose: 200.0 mg/kg/injection, schedule: Q01DX001 (ip), vehicle: carboxymethylcellulose (CMC).
Where [6] appears, read: dose: 400.0 mg/kg/injection, schedule: Q01DX001 (ip), vehicle: carboxymethylcellulose (CMC).
[7] abbreviates: dose: 100.0 mg/kg/injection, schedule: Q04DX003 (ip), vehicle: saline.
The mark [8] stands for this setting: dose: 200.0 mg/kg/injection, schedule: Q04DX003 (ip), vehicle: saline.
Where [9] appears, read: dose: 100.0 mg/kg/injection, schedule: Q01DX009 (ip), vehicle: Klucel (hydroxypropylcellulose) (HPC).
The mark [10] stands for this setting: dose: 200.0 mg/kg/injection, schedule: Q01DX009 (ip), vehicle: Klucel (hydroxypropylcellulose) (HPC).

Values joined by “and” are separate entries in the source; they are usually repeats but may differ in a detail not shown here. Identical values can stand only once. Inconclusive results and toxic doses are left out.

`COc1ccc(C2(C#N)CC2)cc1`: the T/C is 86 % of control under setting [1]; 101 % of control (dose: 100.0 mg/kg/injection, schedule: Q04DX003 (ip), vehicle: saline with Tween-80); 88 % of control under setting [2]; 101 % of control (dose: 200.0 mg/kg/injection, schedule: Q04DX003 (ip), vehicle: saline with Tween-80); 103 % of control under setting [3]; 103 % of control (dose: 400.0 mg/kg/injection, schedule: Q04DX003 (ip), vehicle: saline with Tween-80).

For `CCCCCCCCCCCCCCCCS(=O)(=O)N/N=C/c1ccc(Cl)c([N+](=O)[O-])c1`, the T/C under setting [4] was 98 % of control, the T/C under setting [5] was 107 % of control and the T/C under setting [6] is 103 % of control.

As to `CN(C)c1ccc2c(c1)C(=O)c1cc(Br)ccc1-2`, the T/C was 105 % of control under setting [4], 100 % of control under setting [5] and 108 % of control under setting [6].

Regarding `CCOC(=O)NCc1cnccn1`, the T/C was 100 % of control and 102 % of control under setting [7]; 95 % of control and 100 % of control under setting [8]; 104 % of control (dose: 400.0 mg/kg/injection, schedule: Q04DX003 (ip), vehicle: saline).

For `COc1cc(Cc2nccc3cc(OC)c(OC)cc23)c(C(C)=O)cc1OC`, the T/C runs as follows: (dose: 0.9 mg/kg/injection, schedule: Q03HX024 (ip), vehicle: saline) 98 % of control; (dose: 1.8 mg/kg/injection, schedule: Q03HX024 (ip), vehicle: saline) 97 % of control; (dose: 2.9 mg/kg/injection, schedule: Q01DX Z (ip), vehicle: saline) 107 % of control; (dose: 3.5 mg/kg/injection, schedule: Q03HX024 (ip), vehicle: saline) 107 % of control; (dose: 4.4 mg/kg/injection, schedule: Q01DX Z (ip), vehicle: saline) 111 % of control; (dose: 6.6 mg/kg/injection, schedule: Q01DX Z (ip), vehicle: saline) 115 % of control. Further, the T/C (dose: 7.0 mg/kg/injection, schedule: Q03HX024 (ip), vehicle: saline) was 111 % of control; the T/C (dose: 7.0 mg/kg/injection, schedule: Q04DX003 (ip), vehicle: saline) is 97 % of control; the T/C (dose: 10.0 mg/kg/injection, schedule: Q01DX Z (ip), vehicle: saline) is 119 % of control; the T/C (dose: 14.0 mg/kg/injection, schedule: Q04DX003 (ip), vehicle: saline) is 104 % of control; the T/C (dose: 22.0 mg/kg/injection, schedule: Q01DX009 (ip), vehicle: saline) is 121 % of control; the T/C (dose: 28.0 mg/kg/injection, schedule: Q04DX003 (ip), vehicle: saline) was 120 % of control. For the same compound, the T/C runs as follows: (dose: 33.0 mg/kg/injection, schedule: Q01DX009 (ip), vehicle: saline) 109 % of control; (dose: 35.0 mg/kg/injection, schedule: Q01DX009 (ip), vehicle: saline) 121 % of control; (dose: 50.0 mg/kg/injection, schedule: Q01DX009 (ip), vehicle: saline) 154 % of control; (dose: 56.0 mg/kg/injection, schedule: Q04DX003 (ip), vehicle: saline) 118 % of control; (dose: 75.0 mg/kg/injection, schedule: Q01DX009 (ip), vehicle: saline) 108 % of control; (dose: 75.0 mg/kg/injection, schedule: Q01DX Z (ip), vehicle: saline) 93 % of control.

Consider `CCCCCCCC(C(=O)O)C(CCCCCCC)C(=O)O` (configuration not stated), for which the T/C by setting is: (dose: 6.0 mg/kg/injection, schedule: Q01DX009 (ip), vehicle: saline) 89 % of control; (dose: 12.0 mg/kg/injection, schedule: Q01DX009 (ip), vehicle: saline) 96 % of control; (dose: 12.0 mg/kg/injection, schedule: Q04DX003 (ip), vehicle: saline) 98 % of control; (dose: 25.0 mg/kg/injection, schedule: Q04DX003 (ip), vehicle: saline) 104 % of control.

For `CN(C)C(=O)N/N=C/c1ccc(Cl)cc1`, the T/C under setting [1] was 95 % of control and the T/C under setting [2] is 92 % of control.

For the compound `CN(C)CCC(C)(N)c1cccc2ccccc12` (configuration not stated), the T/C was 113 % of control under setting [7] and 107 % of control under setting [8].

With `C(=N/Sc1ccccc1)/c1ccccc1`, the T/C was 98 % of control (dose: 100.0 mg/kg/injection, schedule: Q04DX002 (ip), vehicle: Klucel (hydroxypropylcellulose) (HPC)); 98 % of control (dose: 200.0 mg/kg/injection, schedule: Q04DX002 (ip), vehicle: Klucel (hydroxypropylcellulose) (HPC)); 112 % of control (dose: 400.0 mg/kg/injection, schedule: Q04DX002 (ip), vehicle: Klucel (hydroxypropylcellulose) (HPC)).

On to `Cn1c(=O)c2c(ncn2CCOC(=O)C(C)(C)Oc2ccc(Cl)cc2)n(C)c1=O`, for which the T/C is 92 % of control under setting [9]; 90 % of control (dose: 100.0 mg/kg/injection, schedule: Q04DX003 (ip), vehicle: Klucel (hydroxypropylcellulose) (HPC)); 105 % of control under setting [10]; 96 % of control (dose: 200.0 mg/kg/injection, schedule: Q04DX003 (ip), vehicle: Klucel (hydroxypropylcellulose) (HPC)); 93 % of control (dose: 400.0 mg/kg/injection, schedule: Q04DX003 (ip), vehicle: Klucel (hydroxypropylcellulose) (HPC)).

Turning to `CC1C(=O)CC(C)(C)CC1=O`, the T/C under setting [1] is 105 % of control, the T/C under setting [2] was 109 % of control and the T/C under setting [3] was 104 % of control.

Take `CC(=O)c1ccc2c3ccccc3n(CCCN3CCC(O)CC3)c2c1`: the T/C runs as follows: (dose: 100.0 mg/kg/injection, schedule: Q04DX002 (ip), vehicle: saline) 95 % of control; (dose: 200.0 mg/kg/injection, schedule: Q04DX002 (ip), vehicle: saline) 113 % of control.

Regarding `CC(=O)N(CC(=O)OCc1ccccc1)C(C)=O`, the T/C by setting is: (dose: 100.0 mg/kg/injection, schedule: Q01DX009 (ip), vehicle: saline) 110 % of control; (dose: 200.0 mg/kg/injection, schedule: Q01DX009 (ip), vehicle: saline) 103 % of control; (dose: 400.0 mg/kg/injection, schedule: Q01DX009 (ip), vehicle: saline) 105 % of control.

`O=C(O)CCCCCN1C(=O)c2cccnc2C1=O`: the T/C (dose: 75.0 mg/kg/injection, schedule: Q04DX003 (ip), vehicle: carboxymethylcellulose (CMC)) is 103 % of control; the T/C (dose: 150.0 mg/kg/injection, schedule: Q04DX003 (ip), vehicle: carboxymethylcellulose (CMC)) was 97 % of control; the T/C (dose: 300.0 mg/kg/injection, schedule: Q04DX003 (ip), vehicle: carboxymethylcellulose (CMC)) is 98 % of control.

As to `O=c1[nH]c2nc3ccccc3nc2c(=O)n1O`, the T/C by setting is: under setting [9], 100 % of control; under setting [10], 105 % of control.

Regarding `CNC(=O)c1ccc(NC(=O)Nc2cccc(C3=NCCN3)c2)cc1NC(=O)Nc1cccc(C2=NCCN2)c1`, the T/C by setting is: (dose: 4.5 mg/kg/injection, schedule: Q01DX Z (ip), vehicle: carboxymethylcellulose (CMC)) 97 % of control; (dose: 9.0 mg/kg/injection, schedule: Q01DX Z (ip), vehicle: carboxymethylcellulose (CMC)) 113 % of control; (dose: 36.0 mg/kg/injection, schedule: Q01DX Z (ip), vehicle: carboxymethylcellulose (CMC)) 160 % of control.

Take `COc1ncnc2c(C3OC(CO)C(O)C3O)[nH]nc12` (configuration not stated): the T/C reads like this: (dose: 100.0 mg/kg/injection, schedule: Q01DX005 (ip), vehicle: saline) 103 % of control; (dose: 200.0 mg/kg/injection, schedule: Q01DX005 (ip), vehicle: saline) 97 % of control.

On to `CCCC/C=N\NC(=S)NCCCCCCCCCCCCCCCCCC`, for which the T/C runs as follows: (dose: 200.0 mg/kg/injection, schedule: Q01DX Z (ip), vehicle: saline) 94 % of control; (dose: 300.0 mg/kg/injection, schedule: Q01DX Z (ip), vehicle: saline) 103 % of control; (dose: 450.0 mg/kg/injection, schedule: Q01DX Z (ip), vehicle: saline) 95 % of control; (dose: 675.0 mg/kg/injection, schedule: Q01DX Z (ip), vehicle: saline) 90 % of control.

`O=[N+]([O-])c1cc2c(cc1Br)-c1ccccc1/C2=N\O`: the T/C under setting [4] was 103 % of control, the T/C under setting [5] was 101 % of control and the T/C under setting [6] was 97 % of control.

On to `NC(CSC(c1ccccc1)(c1ccccc1)c1ccc(CBr)cc1)C(=O)O` (configuration not stated), for which the T/C by setting is: (dose: 50.0 mg/kg/injection, schedule: Q01DX009 (ip), vehicle: other) 105 % of control; (dose: 100.0 mg/kg/injection, schedule: Q01DX009 (ip), vehicle: other) 115 % of control; (dose: 200.0 mg/kg/injection, schedule: Q01DX009 (ip), vehicle: other) 121 % of control.
